According to patent US20260265239A1, “CRYSTAL FORM OF 2,6-PIPERIDINEDIONE COMPOUND, AND PREPARATION METHOD THEREFOR AND USE THEREOF” (ZHANGZHOU PIEN TZE HUANG PHARMACEUTICAL CO., LTD., priority 2023, published 2026):
Where a name gives a salt, the structure may show the parent alone.

Experiments:
[1] = Pharmacokinetic evaluation in mice; assay type: in vivo, C57BL/6 or C57 male mice
From the text: C57BL/6 or C57 male mice were selected as the test animals for this study. The LC/MS/MS method was employed to quantitatively determine the plasma drug concentrations at various time points after intravenous injection or intragastric administration of the test compound, aiming to evaluate the pharmacokinetic characteristics of the compound of the present disclosure in mice.
C57BL/6 or C57 mice (male, 20 to 30 g, 7 to 10 weeks old, Beijing Vital River).
A clear solution of the test compound was injected intravenously into the tail vein of C57BL/6 mice (fasted overnight) (vehicle: 10% DMSO/10% solutol/80% H2O), or administered intragastrically to C57 mice (fed). […] The mixture was thoroughly vortexed and mixed, and centrifuged at 6000 g for 3 minutes at 2 to 8° C. […] The mixture was thoroughly vortexed and mixed, and centrifuged at 6000 g for 3 minutes at 2 to 8° C. Plasma drug concentrations were determined by the LC-MS/MS method, and relevant pharmacokinetic parameters were calculated using Phoenix WinNonlin 8.2.0 pharmacokinetic software with non-compartmental model linear-log trapezoidal method.

SU-DHL-2 = assay: Anti-proliferative effect in lymphoma cell line SU-DHL-2 (CellTiter-Glo); assay type: cell-based, human
Description: Objective: This experiment was conducted to detect the inhibitory effect of the compound of formula (I) on cell proliferation in the lymphoma cell line SU-DHL-2.
The tumor cell lines were cultured under the above culture conditions in an incubator at 37° C. and 5% CO2. The cells were passaged periodically, and those in the logarithmic growth phase were harvested for seeding.
• (1) The cells were stained with trypan blue, and the viable cells were counted. • (2) The cell concentration was adjusted to an appropriate concentration.
• (3) 50 μL of cell suspension was added to each well of the culture plate as shown in the figure above. • (4) The culture plate was incubated overnight in an incubator at 37° C., 5% CO2, and 100% relative humidity.
The drug was administered with an Echo655 instrument. A dosing volume of 50 nL was used, with a final DMSO concentration of 0.1%. The culture plate was centrifuged at 1000 rpm for 1 min and incubated at 37° C., 5% CO2, and 100% relative humidity for 4 days. […]

[2] = Pharmacokinetic evaluation in beagle dogs; assay type: in vivo
From the text: Male beagle dogs were selected as the experimental animals in this study. The LC/MS/MS method was employed to quantitatively determine the plasma drug concentrations at different time points after intravenous injection or intragastric administration of the test compound, aiming to evaluate the pharmacokinetic characteristics of the compound of the present disclosure in beagle dogs.
Beagle dogs (male, 7 to 10 kg, Beijing Mars Biotechnology Co., Ltd.).
A solution of the test compound was slowly injected intravenously into beagle dogs (fed) via the peripheral vein (vehicle: 5% DMSO/10% Solutol/85% H2O), or administered intragastrically to beagle dogs (fed). For intravenous administration, 0.5 mL of blood was collected from the peripheral vein at 0.083, 0.25, 0.5, 1, 2, 4, 6, 8, and 24 h after administration, placed in EDTA-2K anticoagulant tubes, and centrifuged at 3200 g for 10 minutes at 2 to 8° C. to separate the supernatant. For intragastric administration, 0.5 mL of blood was collected from the peripheral vein at 0.083, 0.25, 0.5, 1, 2, 4, 6, 8, and 24 h after administration, placed in EDTA-2K anticoagulant tubes, and centrifuged at 3200 g for 10 minutes at 2 to 8° C. to separate the supernatant. Plasma drug concentrations were determined by the LC-MS/MS method, and relevant pharmacokinetic parameters were calculated using Phoenix WinNonlin 6.3 or 8.3.5 pharmacokinetic software with non-compartmental model linear-log trapezoidal method.

[3] = Intragastric administration (10 mg/kg) (fed)
[4] = Intragastric administration, 5 mg/kg
[5] = Intragastric administration, 15 mg/kg
[6] = Intravenous Injection (0.5 mg/kg)

O=C1CCC(c2noc3ccc4c(NC(=O)CN5CCN(C[C@H]6CC[C@H](n7cc(NC(=O)c8coc(-c9ccnc(NCC%10CC%10)c9)n8)c(C(F)F)n7)CC6)CC5)cccc4c23)C(=O)N1 (stereo partly shown) [Hydrochloride of Compound of Formula (I)]
Area Under the Drug-Time Curve (0-inf) [1, 3]: 4.47 µM·h | Peak Concentration [1, 3]: 0.54 µM | Time to Peak Concentration [1, 3]: 1.00 h | Area Under the Drug-Time Curve (0-inf) ([1]; Intravenous Injection (2 mg/kg) (fasted)): 5.40 µM·h | inhibitory effect on cell proliferation (conclusion) (SU-DHL-2): excellent inhibitory effect | Area Under the Drug-Time Curve (0-inf) [2, 4]: 3.20 µM·h | Peak Concentration [2, 4]: 0.41 µM | Time to Peak Concentration [2, 4]: 4.00 h | Area Under the Drug-Time Curve (0-inf) [2, 5]: 8.02 µM·h | Peak Concentration [2, 5]: 0.87 µM | Time to Peak Concentration [2, 5]: 4.00 h | Apparent Distribution Volume [2, 6]: 5.83 L/kg | Area Under the Drug-Time Curve (0-inf) [2, 6]: 0.44 µM·h
